Results from US4043993A, “New pentapeptides and methods for their production” (Parke, Davis & Company, priority 1976, dated 1977).
Values joined by “and” are separate entries in the source; they are usually repeats but may differ in a detail not shown here. Identical values can stand only once. No end group written: not given here.

System: LRF (luteinizing hormone release factor) induced luteinizing hormone (LH) release
Assay: LRF antagonist activity in vitro in rat anterior pituitary cell cultures
Format: cell-based
Excerpt: Pentapeptides of this invention were screened for LRF antagonist activity in vitro using rat anterior pituitary cell cultures as described by Vale et. al. [Endocrinology, 91, 562 (1972)]. The inhibition of LRF (luteinizing hormone release factor) induced luteinizing hormone (LH) release into the culture medium is the endpoint in this in vitro bioassay.

[1] = Molar Conc. 1×10^-6, LRF Control 2.5×10^-10
[2] = Molar Conc. 1×10^-7, LRF Control 3.5×10^-10
[3] = Molar Conc. 2.5×10^-7, LRF Control 3.5×10^-10
[4] = Molar Conc. 6×10^-7, LRF Control 3.5×10^-10
[5] = Molar Conc. 6×10^-8, LRF Control 3.5×10^-10

Substance	LH Value (LRF alone (LRF Control), Molar Conc. 2.5×10^-10)	LH Value (LRF alone (LRF Control), Molar Conc. 3.5×10^-10)	% LH Release Inhibition [1]	LH Value [1]	% LH Release Inhibition [2]	LH Value [2]	% LH Release Inhibition [3]	LH Value [3]	% LH Release Inhibition [4]	LH Value [4]	% LH Release Inhibition [5]	LH Value [5]
LRF: luteinizing hormone releasing factor, also referred to as luteinizing hormone releasing hormone, or LH-RH; stimulates secretion of luteinizing hormone (QHWSYGLRPG; ends and bridges not checked; UniProt P01148 24-33, looked up) [reference compound]	38.98 ng/mL	33.78 ng/mL and 41.70 ng/mL and 58.17 ng/mL and 42.57 ng/mL										
N-Benzyloxycarbonyl-D-2-azetidinecarbonyl-N^im -benzyl-L-histidyl-O-benzyl-L-tyrosyl-O-benzyl-L-seryl-D-alanine methyl ester			102%	5.72 ng/mL	53%	33.60 ng/mL	78%	22.34 ng/mL	89%	17.18 ng/mL	29%	44.92 ng/mL
